Measurements taken from patent US9719057B2, “Laundry detergent” (Liquid Vanity ApS, priority 2010, dated 2017).

Key:
[1] = Critical micelle concentration by Sudan Black B absorbance at 600 nm; assay type: physicochemical; conditions: data not shown
Description: The critical micelle concentration is measured using Sudan Black B dissolved in the test solutions at different concentrations. Sudan Black B is dissolvable in micelles, only. A difference in the absorbance measured is thus a valid measure of the critical micelle concentration in the test solutions. Absorbance was measured using a Shimadzu UV-1800 spectrofotometer and the absorbance is measured at 600 nm. Dilutions were made in water and Sudan Black B by adding first water, then Sudan Black B and at last the test solutions to 4 ml cuvettes. The dilutions were then stirred and left for at least 6 hours at room temperature. Then the absorbance was measured.

[2] = system: Candida albicans, ATCC 2091; assay: Biocidal effect, dosage response and synergy (reduction in CFU after exposure to biocide); assay type: cell-based; conditions: 9 minutes at 30° C.; for Reduction obtained in Candida Albicans: pH 6-6.5, factor of reduction in CFU
Source text: (§1) The assay is based on the requirements to chemical disinfectants and antiseptic agent with regard to a reduction in fungus and bacteria of 4 and 5 log units respectively. These requirements are stated in DS/EN 1276:1997 and DS/EN 1275:2005, respectively.
(§2) The following microorganisms were chosen for this dosage response assays: Staphylococcus aureus, ATCC 6538, representing grampositive bacteria; Escherichia coli, ATCC 11229, representing gramnegative bacteria; and Candida albicans, ATCC 2091, representing yeast fungi.
Candida albicans was cultivated on malt extract agar (MEA) for 24 h at 37° C. before use. Then the yeast cells were harvested in 0.9% saline by use of a drigalski spatula. CFU were determined by plating on MEA.
(§3) The exposure to biocide was performed at pH 6-6.5, which was obtained by addition of 100 mM potassium phosphate buffer. To test tubes with 8 mL sterile 100 mM phosphate buffer were added 1 mL test solution (i.e. biocide solution) and 1 mL stock culture. After thorough mixing the assay mixtures were exposed to heating in water bath at 30° C. for 9 minutes. After exposure the test tubes were immediately removed from the water bath and the surviving microorganisms were determined by plating.
(§4) Reference samples were prepared by adding 1 mL sterile water instead of 1 mL test solution.
(§5) From appropriate dilutions of starting material (mixture of biocide solution, stock culture and buffer) was taken 0.1 mL onto agar plates, and the material was spread with Drigalski spatulas. The plates were incubated at 37° C. 1 day for bacteria and 2 days for yeast.
(§6) For determining CFU of the bacteria after exposure, with and without biocide, was used incubation on TSA for 24 h at 37° C. For determining CFU of Candida albicans before and after exposure was used incubation on MEA for 48 h at 37° C.
(§7) Where a large reduction in organisms was expected (test concentrations of 700 and 200 ppm) 1 mL and 0.1 mL solution, respectively, were mixed with 100 ml sterile water and filtered through a 47 mm Millipore EZ-Pak® membrane filter, mesh 0.22 μm. The filter was rinsed with 100 mL sterile water, and thereafter placed directly on the agar plate. The mixing in water and subsequent rinsing ensures that the biocide is heavily diluted and thus will not have any effect after plating. For dilutions of 100× and more, regular plating were used, as the biocide at these concentrations is considered to not provide any further reduction in the microorganisms during plating on agar.
(§8) Plates with between 20 and 500 CFU were chosen for counting. Number of CFU (colony forming units) per g or mL sample was calculated by multiplying the number of colonies per plate with the dilution and further by 10, as only 0.1 mL was used on each plate.
(§9) After incubation, CFU was determined and reduction in organisms was calculated. All tests were performed in triplicate.
(§10) The optimal biocides, Bardap-26 and Akacid Forte, found in Example 4A, were further assayed for synergistically effect. Bardap-26 and Akacid Forte was mixed in a 50:50 ratio, and the applied concentrations can be seen from Table 5. The methods and solutions were otherwise as described in example 4A herein.

[3] = system: Staphylococcus aureus, ATCC 6538; assay: as above; assay type: cell-based; conditions: 9 minutes at 30° C.; for Reduction obtained in Staphylococcus Aureus: pH 6-6.5, factor of reduction in CFU
Source text: as §1, §2
(§11) The bacterial cultures were cultivated in the growth medium TSB (Tryptic Soy Bouillon) for 24 h at 37° C. before use. Colony forming units (CFU) were determined by plating Tryptic Soy Agar (TSA).
as §3, §4, §5, §6, §7, §8, §9, §10

[4] = system: Escherichia coli, ATCC 11229; assay: as above; assay type: cell-based; conditions: 9 minutes at 30° C.; for Reduction obtained in E. coli: pH 6-6.5, factor of reduction in CFU
Source text: as §1, §2, §11, §3, §4, §5, §6, §7, §8, §9, §10

[5] = 120 ppm active (total for mixtures)
[6] = test concentrations 40-700 ppm active

Substance: N,N-didecyl-N-methyl-poly(oxyethyl) ammonium propionate [Bardap-26]
- CMC [1]: 0.7 to 1.0 mmol/L
- Reduction obtained in Candida Albicans ([2]; 40 ppm active): No reduction
- Reduction obtained in Candida Albicans ([2]; 80 ppm active): 10^2-10^3
- Reduction obtained in Candida Albicans [2, 5]: ~10^3
- Reduction obtained in Candida Albicans ([2]; 160 ppm active): ~10^4
- Reduction obtained in Candida Albicans ([2]; 200 ppm active): ~10^4
- Reduction obtained in Candida Albicans ([2]; 700 ppm active): 10^4-10^5
- Reduction of Candida Albicans ([2]; concentration not given): 10^4
- Effect on Candida Albicans as summarised in words [2, 6]: good effect
- Reduction obtained in Staphylococcus Aureus ([3]; 40 ppm active): ~10^2
- Reduction obtained in Staphylococcus Aureus ([3]; 80 ppm active): 10^2-10^3
- Reduction obtained in Staphylococcus Aureus [3, 5]: 10^2-10^3
- Reduction obtained in Staphylococcus Aureus ([3]; 160 ppm active): >10^7
- Reduction obtained in Staphylococcus Aureus ([3]; 200 ppm active): >10^7
- Reduction obtained in Staphylococcus Aureus ([3]; 700 ppm active): >10^7
- Effect on Staphylococcus Aureus as summarised in words [3, 6]: good effect
- Reduction obtained in E. coli ([4]; 40 ppm active): ~10^4
- Reduction obtained in E. coli ([4]; 80 ppm active): ~10^4
- Reduction obtained in E. coli [4, 5]: 10^4-10^5
- Reduction obtained in E. coli ([4]; 160 ppm active): >10^7
- Reduction obtained in E. coli ([4]; 200 ppm active): >10^7
- Reduction obtained in E. coli ([4]; 700 ppm active): >10^7
- Effect on E. coli as summarised in words [4, 6]: good effect
